Measured values from PMC12560410, “Multi spectroscopic investigations with molecular docking and molecular dynamics simulation of the binding mechanism of molnupiravir to bovine serum albumin” (BMC Chemistry, 2025).

Legend:
[1] = target: T1, bovine serum albumin (Bos taurus, UniProt P02769); assay: FT-IR spectroscopy of BSA with MOL; type: binding; settings: BSA 3 µM, MOL 180 µM, pH 7.4
T1 construct: purchased BIOMARK laboratories (Pune, Maharashtra, India)
Description: FT-IR spectra of 3 µM bovine serum albumin solution in tris-HCl buffer, BSA (3 µM) in the presence of MOL (180 µM), and MOL alone (180 µM) at pH 7.4 were recorded using Tensor27—S2887 FT-IR spectrometer (Bruker, Germany) from 4000 to 1000 cm^− 1. Baseline correction and water vapor subtraction were applied prior to analysis.
FT-IR spectroscopy was utilized to examine the secondary structure of BSA in free, drug-bound forms and free drug by recording changes in spectra as shown in Fig. S5. However, slight differences were observed between these spectra. […] The results from the UV absorption and fluorescence analysis are consistent with this observation.

[2] = set-up: method as in PMID 39912659, PMID 37526305; settings: following oral administration; hydrolyzed by esterases to NHC; cited from earlier work
[3] = target: T2, bovine serum albumin (BSA) (Bos taurus, UniProt P02769); assay: Site marker competition (indomethacin site I, diazepam site II) for MOL binding to BSA; settings: 295 K, pH 7.4; for Kd: read-out: Log Ka (converted)
T2 construct: purchased BIOMARK laboratories (Pune, Maharashtra, India)
Description: This study was conducted using two specific site probes: indomethacin for site I and diazepam for site II. In these experiments, the concentrations of BSA and the site probes were kept constant at 3 µM and 10 µM, respectively, while the concentration of MOL was varied from 30 to 180 µM. Fluorescence intensity was measured at 350 nm with excitation at 295 nm, and all measurements were carried out at 295 K and pH 7.4. The binding equilibrium constants (Ka) of MOL to BSA alone, indomethacin-BSA, and diazepam-BSA complexes were compared.
The apparent binding constants (Ka) were calculated by plotting log[(F₀–F)/F] versus log[Q] in the absence and presence of site markers Figure S6.

[4] = target: T3, BSA (Bos taurus, UniProt P02769); assay: Synchronous fluorescence spectroscopy of BSA with MOL; type: binding, bovine; settings: MOL 0–180 µM, pH 7.4
T3 construct: purchased BIOMARK laboratories (Pune, Maharashtra, India)
Description: Initially, the synchronous fluorescence spectra of BSA were acquired at a concentration of 3µM, and then its mixtures with MOL ranged from 30 to 180 µM at pH 7.4. These spectra were obtained at spectral intervals of Δλ = 15 nm as well as Δλ = 60 nm, with a 10 mm path quartz cell and scanning rate of 1000 nanometers per minute (nm/min).
The polarity of the surrounding environment of the fluorescent amino acids in BSA is influenced by ligand interaction, and this has been studied using synchronous fluorescence spectroscopy. In this study, a scanning interval (Δλ) of 60 nm and 15 nm was set between the excitation and emission wavelengths, allowing for the observation of polarity alterations surrounding tyrosine (Tyr) and tryptophan (Trp) residues, respectively.
Spectra of BSA synchronous fluorescence were acquired for BSA solutions both with and without the addition of MOL (Fig. 4). […] The Ratios of Synchronous Fluorescence Quenching (RSFQ) were determined using Eq. 5 as follows: […]

[5] = target: T2, bovine serum albumin (BSA); assay: Effect of common ions on binding affinity of MOL to BSA; settings: 297 K, pH 7.4
Description: […] […] These findings can be used for further investigations into how different ions influence the binding affinity of MOL to BSA.
Ka′/Ka is the binding constant divided by the binding constant in the absence of the ion; r is the correlation coefficient.

[6] = target: T2, bovine serum albumin (BSA); assay: Fluorescence quenching of BSA by MOL (Stern–Volmer and modified Stern–Volmer analysis, thermodynamics); type: binding; settings: for Ksv (Stern–Volmer quenching constant) / n (number of binding sites) / Kd: pH 7.4; for Kd: read-out: Log Ka (converted)
Description: The fluorescence of the tyrosine (Tyr) and tryptophan (Trp) residues observed for solutions that have a fixed BSA concentration 3 µM and different concentrations of MOL (30–180 µM) at pH 7.4. The emission spectra were obtained between 300 and 500 nm. The excitation wavelength was 295 nm, at temperatures 285, 290, 295, 303, and 308 K. […]
Utilizing the Stern–Volmer equation, the quenching mechanism was identified (Eq. 1):1 [drawing 1]
The fluorescence intensities of BSA in absence of MOL are indicated as [drawing 2] while those measured in the presence of MOL are referred to as [drawing 3] . The term [drawing 4] represents the Stern–Volmer quenching rate constant. MOL concentration represents the quencher concentration [drawing 5] .
F^0/F was plotted versus [Q], then the slope was calculated to obtain the values of Ksv as shown in the Stern–Volmer equation (Eq. 1) to assess the experimental results as shown in Fig. 3.
IFE-corrected fluorescence intensity values were calculated using the following formula: […]
The modified Stern–Volmer equation is used to determine the stoichiometry (n) and equilibrium association constant (Ka), which govern how small molecules interact with specific binding sites on a macromolecule (Eq. 2).2 [drawing 7]
where [drawing 8] represents the number of binding sites and [drawing 9] represents the binding constant, as calculated from the plots of log [(F0–F)/F] against log [Q]. The plot of the modified Stern–Volmer equation was illustrated in Fig. S2. […] The stoichiometry of the binding interaction concerning MOL and BSA was approximately 1:1, as indicated by the n value being close to unity.
The intercept and slope of the plot of ln Ka vs. 1/T were used to determine ΔS (entropy change) and ΔH (enthalpy change), respectively in accordance with the Vant’s Hoff equation (Eq. 3), as shown in Table 2.
Furthermore, the Gibbs–Helmholtz equation determines ΔG (Eq. 4).3 [drawing 10] 4 [drawing 11]
where ΔG denotes the Gibbs free energy change and R denotes the universal gas constant (8.314 J mol^−1 k^−1) while T is the absolute temperature (K). […] The negative values of both ΔH and ΔS indicate that the binding of MOL to BSA is primarily governed by hydrogen bonding and van der Waals interactions rather than hydrophobic forces. The thermodynamic results, was supported by docking analysis, confirming that hydrogen bonding and van der Waals contacts are the dominant driving forces in MOL–BSA complex formation. […] Moreover, the spontaneity of the interaction could reflect the favorable conformational stability of the MOL-BSA complex.

[7] = van't Hoff plot of ln Ka vs 1/T, 285–308 K

T2 sequence (P02769 25-607): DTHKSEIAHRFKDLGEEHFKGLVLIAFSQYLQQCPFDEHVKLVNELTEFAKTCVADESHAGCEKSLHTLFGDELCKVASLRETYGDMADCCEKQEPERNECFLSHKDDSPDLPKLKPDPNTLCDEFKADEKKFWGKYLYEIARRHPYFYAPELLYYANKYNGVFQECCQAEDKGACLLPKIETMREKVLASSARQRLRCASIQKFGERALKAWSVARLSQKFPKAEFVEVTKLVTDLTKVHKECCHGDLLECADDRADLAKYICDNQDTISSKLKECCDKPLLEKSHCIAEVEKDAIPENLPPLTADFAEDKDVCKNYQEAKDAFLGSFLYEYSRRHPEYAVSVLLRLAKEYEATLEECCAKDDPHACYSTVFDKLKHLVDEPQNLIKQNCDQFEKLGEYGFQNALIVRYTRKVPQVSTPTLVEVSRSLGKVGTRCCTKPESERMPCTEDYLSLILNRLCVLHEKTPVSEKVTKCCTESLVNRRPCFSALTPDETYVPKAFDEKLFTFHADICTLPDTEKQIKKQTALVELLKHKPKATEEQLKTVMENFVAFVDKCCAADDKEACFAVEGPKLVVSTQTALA
T3 sequence (P02769 25-607): as above
T1 sequence (P02769 25-607): as above

In the case of CC(C)C(=O)OC[C@H]1O[C@@H](n2ccc(NO)nc2=O)[C@H](O)[C@@H]1O [MOL, Molnupiravir], the “amide band of BSA after addition of MOL” value [1] is given as “shifted from 1610 cm^−1 to 1636 cm^−1”, the “systemic plasma concentration of parent drug” value [2] is given as “no significant concentrations of the parent drug are detected systemically in plasma” and the Kd ([3]; in presence of diazepam (site II probe, 10 µM)) is given as 361 µM. For the same compound, the Kd ([3]; in presence of indomethacin (site I probe, 10 µM)) was 56.3 µM, the “preferential binding site on BSA” value ([3]; site marker displacement) was “Sudlow’s site II” and the “red shift in λmax of BSA synchronous fluorescence” value ([4]; Δλ = 15 nm (Tyr residues)) was “about 2 nm”. The “shift in λmax of BSA synchronous fluorescence” value ([4]; Δλ = 60 nm) was “no shift was detected”, the “Ka’/ Ka (binding constant divided by binding constant in absence of the ion)” value ([5]; Ca^2+ added (75 µM)) was 0.9046 and the Kd ([5]; Ca^2+ added (75 µM), read-out: Ka’ (binding constant) (converted)) was 674 µM. For the same compound, the “Ka’/ Ka (binding constant divided by binding constant in absence of the ion)” value ([5]; Co^2+ added (75 µM)) was 1.6233, the Kd ([5]; Co^2+ added (75 µM), read-out: Log Ka (converted)) was 375 µM and the “Ka’/ Ka (binding constant divided by binding constant in absence of the ion)” value ([5]; Cu^2+ added (75 µM)) was 0.2573. The Kd ([5]; Cu^2+ added (75 µM), read-out: Log Ka (converted)) was 2370 µM, the “Ka’/ Ka (binding constant divided by binding constant in absence of the ion)” value ([5]; No ion) was 1 and the Kd ([5]; No ion, read-out: Ka’ (binding constant) (converted)) was 609 µM. For the same compound, the “ΔG (Gibbs free energy change)” value ([6]; 285 K) was -23.915 KJ mol ^− 1, the “Ksv (Stern–Volmer quenching constant)” value ([6]; 285 K) was 11100 L/mol and the “n (number of binding sites)” value ([6]; 285 K) was 1.072. For the same compound, the Kd ([6]; 285 K) was 41.4 µM, the “ΔG (Gibbs free energy change)” value ([6]; 290 K) was -23.546 KJ mol ^− 1 and the “Ksv (Stern–Volmer quenching constant)” value ([6]; 290 K) was 9635 L/mol. The “n (number of binding sites)” value ([6]; 290 K) was 1.077, the Kd ([6]; 290 K) was 57.4 µM and the “difference between IFE-corrected and uncorrected Ksv” value ([6]; 295 K) was 0.9%. For the same compound, the “ΔG (Gibbs free energy change)” value ([6]; 295 K) was -23.252 KJ mol ^− 1, the “corrected Stern–Volmer constant (Ksv)” value ([6]; 295 K, inner filter effect (IFE) corrected) was 7160 L/mol and the “Ksv (Stern–Volmer quenching constant)” value ([6]; 295 K) was 7096 L/mol. The “n (number of binding sites)” value ([6]; 295 K) was 1.086, the Kd ([6]; 295 K) was 76.3 µM and the “uncorrected Stern–Volmer constant (Ksv)” value ([6]; 295 K, uncorrected) was 7096 L/mol. For the same compound, the “ΔG (Gibbs free energy change)” value ([6]; 303 K) was -22.276 KJ mol ^− 1, the “Ksv (Stern–Volmer quenching constant)” value ([6]; 303 K) was 5288 L/mol and the “n (number of binding sites)” value ([6]; 303 K) was 1.066. For the same compound, the Kd ([6]; 303 K) was 144 µM, the “ΔG (Gibbs free energy change)” value ([6]; 308 K) was -21.618 KJ mol ^− 1 and the “Ksv (Stern–Volmer quenching constant)” value ([6]; 308 K) was 3800 L/mol. For the same compound, the “n (number of binding sites)” value ([6]; 308 K) was 1.055, the Kd ([6]; 308 K) was 216 µM and the fluorescence quenching mechanism ([6]; Ksv inversely proportional to temperature) was “static interaction”. The “ΔH (enthalpy change)” value [6, 7] was -52.434 KJ.mol ^− 1 and the “ΔS (entropy change)” value [6, 7] was -99.63 J mol^− 1K^− 1.
